In data set [1] the test system is Panton-Valentine leukocidin (PVL)-positive MRSA strain. Put plainly: Staphylococcus aureus-induced acute osteomyelitis in a rat model. Format: in vivo. The note with it: for mean reduction in bacterial burden compared to vehicle controls: after 3 weeks of treatment; for mean reduction in bacterial burden compared to vehicle controls / Bone cultures found negative (rats): Compound A 100 mg/kg po BID, vancomycin 100 mg/kg ip QD, fosfomycin 75 mg/kg ip QD; for Bone cultures found negative (rats): day 28, after 3 weeks of treatment. The protocol:
(§1) Minimum inhibitory concentration (MIC) assays were performed by broth microdilution using CLSI guidelines against 20 MRSA strains isolated from bone infections. Experimental osteomyelitis was induced through inoculation of the tibial medullary cavity with 7 log10 colony-forming unit (CFU) of a Panton-Valentine leukocidin (PVL)-positive MRSA strain on day 1. Animals were randomly assigned to the following treatment groups: Compound A 100 mg/kg po BID, vancomycin 100 mg/kg ip QD, fosfomycin 75 mg/kg ip QD and vehicle po BID for 3 weeks starting on day 8 post infection (n=6/group). CFU were enumerated in bone homogenates prior to treatment on day 8 in control animals and at the end of treatment period on day 28. Infected and non-infected bone and plasma samples were collected for quantification of Compound B by LC-MS/MS.

Data set [2] concerns MRSA clinical strain. Description: MIC by broth microdilution against the MRSA isolate (Example 4). Format: cell-based. The note with it: Staphylococcus aureus, read-out: MIC for the MRSA isolate. The protocol: (§2) MIC assays were performed by broth microdilution using CLSI guidelines. Osteomyelitis (OM) was induced in rabbit through inoculation of the knee with 10^8 CFU of an MRSA clinical strain after bone trepanation. On day 3 post-inoculation, surgical debridement was performed to mimic the clinical procedure. Samples of femoral red bone marrow (BM) and epiphyseal spongy bone were removed and bacterial counts were determined.
(Broth dilution looks for growth in wells or tubes with falling amounts of substance.)

The subject of data set [3] is MRSA clinical strain. Format: in vivo, rabbit. The note with it: 4 days of treatment; for bacterial counts in BM and bone, result in words: versus vehicle; for Mean ± SD Δlog10 CFU/g of tissue (day 3-day 7), Bone marrow / Mean ± SD Δlog10 CFU/g of tissue (day 3-day 7), Epiphyseal bone: Compound A 12.5 mg/kg BID iv, vancomycin 100 mg/kg once daily constant iv infusion. The protocol:
as §2
On day 7 post-inoculation, the bacterial counts were determined in BM and bone samples. The treatment efficacy was assessed by comparing the bacterial counts before (day 3 after infection) and after (day 7 after infection) the antibacterial therapy. Infected and non-infected BM, bone and plasma samples were collected for quantification of Compound B by LC-MS/MS.

In data set [4] the test system is rabbit saphenous vein rings. Put plainly: In vitro vascular relaxation test in rabbit saphenous vein rings pre-contracted with noradrenaline. Format: cell-based. The note with it: for EC50: Oryctolagus cuniculus, saphenous vein rings pre-contracted with 1 μM noradrenaline, read-out: pD2 value (−log EC50) (converted); for relaxation of 1 μM noradrenaline pre-contracted preparations: DMSO-treated group −29±11%. As for the experimental part: The vascular relaxing effects of Compound B were evaluated using isolated rabbit saphenous venous tissue. Rabbits were sacrificed by a blow to the head followed by a cervical dislocation and exsanguination. A segment of the saphenous vein was carefully excised. Vein was cleaned of all fat and connective tissue and cut into 2.5 mm long rings. The rings were then mounted horizontally in 20-ml organ baths filled with Krebs's solution maintained at 37.7±0.5° C. and gassed with a mixture of 95% O2 and 5% CO2. Krebs's solution was made up as follows (mM): NaCl: 118.0/KCl: 5.0/CaCl2): 2.6/MgSO4 (7H2O): 1.2/NaHCO3: 24.9/KH2PO4: 1.2/glucose: 10.0. pH is 7.40±0.05. The rings were allowed to equilibrate for 60 minutes at an optimal resting tension of 1 g. Contractile tensions were measured using an isometric force transducer and signals were analyzed using a specialized software (IOX version 1.554, EMKA Technologies, Paris, France). Tissue viability was verified using three challenges to 80 mM KCl. The maximal contraction was reached after 3 challenges of KCl. Endothelium integrity was verified on the basis of the relaxation produced by 1 μM acetylcholine in rings precontracted with 1 μM noradrenaline. All experiments were performed on […] rings with endothelium. The method evaluated the effect of the test substance in pre-contracted preparations. The preparations were pre-contracted with an agonist (Noradrenaline at 1 μM) until a stable tonic contraction was reached. Six cumulative concentrations of the test or comparison substances were then added into the bath and relaxations were recorded to plot a concentration-response curve. Three preparations were exposed to DMSO, 0.1% over 6 consecutive periods for comparison to Compound B and cilostazol. Four preparations (obtained from 4 animals) were studied for the test and comparison substances. Three preparations were studied for the DMSO-treated group. The relaxation response to test substance was expressed as the percentage of inhibition of agonist-induced pre-contraction. The concentration of agonist inducing 50% of the maximum response (EC50) was determined from each individual concentration-response curve using linear regression. For each ring, the agonist potency (pD2) was calculated as −log (EC50).

Another data set deals with human PDE3B (Homo sapiens, UniProt Q13370). Put plainly: PDE3 inhibition assay, Caliper mobility shift (PDE3B). Format: biochemical. The note with it: iFL-cAMP substrate, read-out: absolute IC50 PDE3B. The protocol: (§3) The inhibitory activity of Compound B was assessed against human PDE3A and PDE3B and was compared to cilostazol (a PDE3 inhibitor) in the enzymatic phosphodiesterase assay using Caliper mobility shift assay (2. Card A1, Caldwell C, Min H et al: High-throughput biochemical kinase selectivity assays: panel development and screening applications. J Biomol Screen. (2009); 14(1):31-42.). This method is based on change in charge and electrophoretic separation of product from fluorescently labeled substrate iFL-cAMP. Assays were performed in a 26 μL volume in a 384 well plate. iFL-cAMP substrate was incubated, off-chip, in reaction buffer (100 mM HEPES (pH 7.5), 5 mM MgCl2 and 0.002% Brij35) in the presence of active enzymes (PDE3A and PDE3B) and test compounds at various concentrations. After incubation period, the reaction products and remaining substrate were measured. Detection was performed using EZ reader II. The concentration of compound inducing 50% of the response (IC50) was determined from each individual concentration-response curve using variable slope fits with Prism software (Graph Pad, San Diego, Calif., USA).

A further data set addresses human PDE3A (Homo sapiens, UniProt Q14432). Description: PDE3 inhibition assay, Caliper mobility shift (PDE3A). It is filed as biochemical. The note with it: iFL-cAMP substrate, read-out: absolute IC50 PDE3A. As for the experimental part:
as §3

A short description of data set [5]: Bone and plasma quantification of Compound B by LC-MS/MS in rat osteomyelitis model. The note with it: in vivo, Compound A 100 mg/kg po BID, no difference between infected and non-infected tibias, read-out: bone:plasma ratio of Compound B. As for the experimental part:
as §1

For data set [6], the system named is MRSA clinical strain. Description: Staphylococcus aureus-induced acute osteomyelitis in a rabbit model (2), dose range. Format: in vivo. As for the experimental part:
(§4) MIC assays were performed by broth microdilution using CLSI guidelines. OM was induced in rabbit through inoculation of the knee with 10^8 CFU/mL of a MRSA clinical strain after bone trepanation. On day 3 post-inoculation, surgical debridement was performed to mimic the clinical procedure. Samples of femoral red bone marrow (BM) and epiphyseal spongy bone were removed and bacterial counts corresponding to day 3 after infection were determined. Treatments were started after 3 days of infection and lasted for 4 days with compound A at the dose level of 12.5, 6.25, 1.6, 0.4 or 0.1 mg/kg BID iv (4 h infusion) or its vehicle BID iv. On day 7 post-inoculation, the bacterial counts were determined in BM and bone samples. The treatment efficacy was assessed by comparing the bacterial counts before (day 3 after infection) and after (day 7 after infection) the antibacterial therapy.

For data set [7], the system named is MRSA clinical strain. Description: MIC by broth microdilution against the MRSA isolate (Example 5). It is filed as cell-based. The note with it: Staphylococcus aureus, Example 5 isolate. As for the experimental part: as §4
The mark [8] stands for this setting: 0.1 mg/kg BID iv, 4 days of treatment, 1 animal.
Setting [9] is: 0.4 mg/kg BID iv, 4 days of treatment.
The mark [10] stands for this setting: 1.6 mg/kg BID iv, 4 days of treatment.
Setting [11] is: 6.25 mg/kg BID iv, 4 days of treatment.
[12] abbreviates: 12.5 mg/kg BID iv, 4 days of treatment.

≈ marks a conversion by molar mass, not a printed value. Where two headings read alike, the source gives them in different places. Marks after values point to notes of the source that are not given here.

Chain of human PDE3A (Q14432 whole entry): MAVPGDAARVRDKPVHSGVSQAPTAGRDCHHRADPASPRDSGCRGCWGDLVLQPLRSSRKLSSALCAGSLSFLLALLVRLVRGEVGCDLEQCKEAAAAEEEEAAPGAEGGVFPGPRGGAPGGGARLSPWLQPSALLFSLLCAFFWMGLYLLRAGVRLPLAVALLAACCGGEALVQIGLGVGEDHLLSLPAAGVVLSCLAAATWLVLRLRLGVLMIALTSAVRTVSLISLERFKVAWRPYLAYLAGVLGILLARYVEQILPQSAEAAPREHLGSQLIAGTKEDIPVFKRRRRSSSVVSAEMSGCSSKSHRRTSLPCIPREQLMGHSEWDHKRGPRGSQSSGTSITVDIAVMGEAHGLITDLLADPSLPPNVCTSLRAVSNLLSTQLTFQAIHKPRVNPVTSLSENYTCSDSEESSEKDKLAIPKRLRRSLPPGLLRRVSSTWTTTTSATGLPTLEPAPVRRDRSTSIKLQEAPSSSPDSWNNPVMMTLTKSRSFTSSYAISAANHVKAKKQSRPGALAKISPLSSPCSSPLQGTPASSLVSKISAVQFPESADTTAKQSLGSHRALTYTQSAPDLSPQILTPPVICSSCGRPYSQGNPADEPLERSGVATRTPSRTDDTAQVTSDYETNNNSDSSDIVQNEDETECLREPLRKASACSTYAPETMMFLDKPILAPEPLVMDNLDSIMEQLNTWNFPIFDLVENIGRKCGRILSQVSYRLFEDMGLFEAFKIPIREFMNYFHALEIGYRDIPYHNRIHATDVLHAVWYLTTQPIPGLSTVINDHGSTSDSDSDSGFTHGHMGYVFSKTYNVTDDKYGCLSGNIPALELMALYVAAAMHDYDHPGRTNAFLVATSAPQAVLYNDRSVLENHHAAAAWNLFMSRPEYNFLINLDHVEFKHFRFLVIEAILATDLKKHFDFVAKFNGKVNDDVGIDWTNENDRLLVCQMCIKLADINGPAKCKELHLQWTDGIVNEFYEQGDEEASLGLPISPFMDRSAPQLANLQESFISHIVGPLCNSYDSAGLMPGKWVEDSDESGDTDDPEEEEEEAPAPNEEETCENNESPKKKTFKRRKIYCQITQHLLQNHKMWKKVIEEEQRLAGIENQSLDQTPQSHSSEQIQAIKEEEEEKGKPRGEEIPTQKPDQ
Chain of human PDE3B (Q13370 whole entry): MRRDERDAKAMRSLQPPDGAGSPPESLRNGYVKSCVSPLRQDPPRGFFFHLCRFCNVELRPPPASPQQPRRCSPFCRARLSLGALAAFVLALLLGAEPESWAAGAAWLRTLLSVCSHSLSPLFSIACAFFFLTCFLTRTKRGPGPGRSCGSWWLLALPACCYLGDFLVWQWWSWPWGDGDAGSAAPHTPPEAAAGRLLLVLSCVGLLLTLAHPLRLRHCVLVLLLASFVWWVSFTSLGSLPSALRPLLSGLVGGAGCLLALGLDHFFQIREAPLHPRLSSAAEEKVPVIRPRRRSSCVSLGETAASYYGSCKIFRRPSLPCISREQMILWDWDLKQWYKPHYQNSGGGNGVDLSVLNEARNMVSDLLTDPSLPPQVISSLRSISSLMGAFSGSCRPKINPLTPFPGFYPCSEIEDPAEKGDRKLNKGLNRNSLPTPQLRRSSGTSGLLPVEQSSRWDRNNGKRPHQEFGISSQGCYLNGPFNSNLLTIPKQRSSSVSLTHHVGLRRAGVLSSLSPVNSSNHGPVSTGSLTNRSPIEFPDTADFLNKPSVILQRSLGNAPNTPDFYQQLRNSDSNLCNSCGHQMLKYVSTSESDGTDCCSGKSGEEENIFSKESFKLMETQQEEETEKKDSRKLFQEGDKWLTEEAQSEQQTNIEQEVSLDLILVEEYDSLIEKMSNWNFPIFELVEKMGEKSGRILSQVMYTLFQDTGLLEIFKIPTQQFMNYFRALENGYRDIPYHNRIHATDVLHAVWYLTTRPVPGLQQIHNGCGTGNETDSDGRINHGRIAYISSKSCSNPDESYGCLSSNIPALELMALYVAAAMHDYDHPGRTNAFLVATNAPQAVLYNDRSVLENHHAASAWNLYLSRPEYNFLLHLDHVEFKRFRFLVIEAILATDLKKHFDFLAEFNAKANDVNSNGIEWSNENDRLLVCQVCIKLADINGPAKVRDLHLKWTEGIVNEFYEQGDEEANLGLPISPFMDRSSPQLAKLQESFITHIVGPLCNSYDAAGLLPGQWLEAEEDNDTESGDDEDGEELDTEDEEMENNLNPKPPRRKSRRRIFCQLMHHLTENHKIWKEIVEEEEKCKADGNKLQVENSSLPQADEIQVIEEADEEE

For `C[C@@H]1O[C@@H]1P(=O)(O)O` [fosfomycin], in [1], the “mean reduction in bacterial burden compared to vehicle controls” value (from here on “mean reduction in bacterial burden”) is listed as 3.3 log10 CFU/g of bone and the “Bone cultures found negative (rats)” value was 2/6.

What is called MIC is the lowest concentration found to suppress growth. For the compound `CN[C@H](CC(C)C)C(=O)N[C@H]1C(=O)N[C@@H](CC(N)=O)C(=O)N[C@H]2C(=O)N[C@H]3C(=O)N[C@H](C(=O)N[C@H](C(=O)O)c4cc(O)cc(O)c4-c4cc3ccc4O)[C@H](O)c3ccc(c(Cl)c3)Oc3cc2cc(c3O[C@@H]2O[C@H](CO)[C@@H](O)[C@H](O)[C@H]2O[C@H]2C[C@](C)(N)[C@H](O)[C@H](C)O2)Oc2ccc(cc2Cl)[C@H]1O` [vancomycin, reference compound], in the data set with MRSA clinical strain [2], the MIC came to 1000 ng/mL (≈ 0.69 µM). Moreover, in data set [1], the “mean reduction in bacterial burden” value is recorded as “no statistically significant reduction” and the “Bone cultures found negative (rats)” value is listed as 0/6. In the data set on MRSA clinical strain [3], the “bacterial counts in BM and bone, result in words” value is “No significant difference”; the “Mean ± SD Δlog10 CFU/g of tissue (day 3-day 7), Bone marrow” value is −1.05 ± 1.30 log10 CFU/g of tissue; the “Mean ± SD Δlog10 CFU/g of tissue (day 3-day 7), Epiphyseal bone” value is −0.49 ± 0.65 log10 CFU/g of tissue.

What is called EC50 is the midpoint of the concentration-response curve. The IC50 is the midpoint of a concentration-inhibition curve. `O=C1CCc2cc(OCCCCc3nnnn3C3CCCCC3)ccc2N1` [cilostazol, reference compound]: in [4], the EC50 is 832 nM. Besides, the “relaxation of 1 μM noradrenaline pre-contracted preparations” value in data set [4] (at 100 μM) is −70±7%. Besides, the “relaxant effects compared to vehicle control group (DMSO)” value in data set [4] (at 10 and 100 μM) is on record as “concentration-dependently relaxed”; in data set [4] (from 0.001 to 1 μM), “no relaxant effects”. The IC50 came out at 912 nM on human PDE3B and 416 nM at human PDE3A.

`Cc1c(CN(C)C(=O)/C=C/c2cnc3c(c2)CCC(=O)N3)oc2ccccc12` [Compound B, (E)-N-methyl-N-((3-methylbenzofuran-2-yl)methyl)-3-(7-oxo-5,6,7,8-tetrahydro-1,8-naphthyridin-3-yl)acrylamide]: the MIC in the data set on MRSA clinical strain [2] (Example 4 isolate) and in the data set on MRSA clinical strain [7] was 4 ng/mL (≈ 0.0107 µM) each time. Moreover, the EC50 in [4] was 1410 nM. Moreover, the “relaxation of 1 μM noradrenaline pre-contracted preparations” value in [4] (at 10 μM) was −69±9%. Also, the “relaxant effects compared to vehicle control group (DMSO)” value in data set [4] (at 3 and 10 μM) is “concentration-dependently relaxed”; in data set [4] (from 0.03 to 1 μM), “no relaxant effects”. In addition, the Kp in [5] was 0.06 to 0.27. Also, the development of resistance entry in the data set with MRSA clinical strain [6] (after the 4-day treatment period) is recorded as “No development of resistance”. The IC50 at human PDE3B is 703 nM; at human PDE3A, 600 nM.

Consider `Cc1c(CN(C)C(=O)/C=C/c2cnc3c(c2)CCC(=O)N3COP(=O)(O)O)oc2ccccc12` [Compound A, {6-[(1E)-3-{methyl[(3-methyl-1-benzofuran-2-yl)methyl]amino}-3-oxoprop-1-en-1-yl]-2-oxo-3,4-dihydro-1,8-naphthyridin-1(2H)-yl}methyl dihydrogen phosphate], for which the “mean reduction in bacterial burden” value in [1] is reported as 2.8 log10 CFU/g of bone. Moreover, the development of resistance entry in data set [1] (after the 3-week treatment period) is “No development of resistance”. Besides, the “Bone cultures found negative (rats)” value in data set [1] was 2/6. In addition, the “Δlog10 CFU/g of tissue (day 3-day 7), Bone marrow” value in the data set with MRSA clinical strain [6] (setting [8]) is listed as −0.74 log10 CFU/g of tissue. For the same compound, the “Δlog10 CFU/g of tissue (day 3-day 7), Epiphyseal bone” value in the data set on MRSA clinical strain [6] (setting [8]) was −1.02 log10 CFU/g of tissue. Besides, the “Mean ± SD Δlog10 CFU/g of tissue (day 3-day 7), Bone marrow” value in the data set with MRSA clinical strain [6] (setting [9]) is −2.03 ± 1.11 ^a log10 CFU/g of tissue; in the data set on MRSA clinical strain [6] (setting [10]), −3.18 ± 0.74 ^a log10 CFU/g of tissue; in the data set on MRSA clinical strain [6] (setting [11]), −3.45 ± 1.53 ^a log10 CFU/g of tissue; in the data set with MRSA clinical strain [6] (setting [12]) it was −3.42 ± 0.96 ^a log10 CFU/g of tissue; with MRSA clinical strain [3] it was −3.62 ± 0.67 log10 CFU/g of tissue. Besides, the “Mean ± SD Δlog10 CFU/g of tissue (day 3-day 7), Epiphyseal bone” value is given as −1.23 ± 0.93 ^b log10 CFU/g of tissue with MRSA clinical strain [6] (setting [9]); −1.53 ± 1.53 ^a log10 CFU/g of tissue in the data set on MRSA clinical strain [6] (setting [10]); −2.17 ± 0.72 ^a log10 CFU/g of tissue in the data set on MRSA clinical strain [6] (setting [11]); −1.76 ± 0.74 ^a log10 CFU/g of tissue in the data set with MRSA clinical strain [6] (setting [12]); −2.52 ± 1.25 log10 CFU/g of tissue in the data set with MRSA clinical strain [3]. Besides, in the data set with MRSA clinical strain [6] (12.5 mg/kg), the “bacterial titers in BM and bone, result in words” value is listed as “significant reduction in bacterial titers”. Also, the “bacterial counts in BM and bone, result in words” value in the data set with MRSA clinical strain [6] (lower doses 6.25, 1.6, 0.4 and 0.1 mg/kg IV BID, down to the 0.4 mg/kg dose) is recorded as “significant reduction in bacterial counts”; with MRSA clinical strain [3], “significant anti-staphylococcal activity”.

These data come from patent US10751351B2, “Medicament for treatment of diabetic foot infections” (Debiopharm International S.A., priority 2016, dated 2020).
